Drawing on US8163778B2 (Hoffmann-LA Roche Inc., priority 2007, dated 2012), this text covers IC50 for 14 compounds.

For this experiment, the target named is T1, human liver FBPase (Homo sapiens, UniProt P09467).
T1 construct: made in house; host or cells: E. coli
T1 sequence (P09467 2-338 limits assumed): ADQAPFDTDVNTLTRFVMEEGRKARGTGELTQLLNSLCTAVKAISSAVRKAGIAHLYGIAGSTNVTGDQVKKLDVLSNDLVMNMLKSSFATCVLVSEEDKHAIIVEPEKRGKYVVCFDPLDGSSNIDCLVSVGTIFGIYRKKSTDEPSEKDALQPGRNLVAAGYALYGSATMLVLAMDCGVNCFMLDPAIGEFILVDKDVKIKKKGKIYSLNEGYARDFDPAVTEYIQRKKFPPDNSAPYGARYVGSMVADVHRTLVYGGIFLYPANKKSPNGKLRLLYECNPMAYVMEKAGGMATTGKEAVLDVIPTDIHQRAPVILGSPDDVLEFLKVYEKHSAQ
As to the kind of experiment: FBPase assay (malachite green phosphate release). The class given is biochemical. The conditions noted are these: recombinant human liver FBPase, 50 μM fructose-1,6-bisphosphate. How it is done:
The following tests were carried out for evaluating the inhibitory activity of the compounds of the present invention against human liver FBPase (Swissprot Data base reference PO9467, entry F16P_HUMAN).
Human liver FBPase cDNA (NM_000507) was purchased from Origene Technologies, Inc, subcloned in a vector for expression in E. Coli., and sequenced. Recombinant human liver FBPase (hlFBPase) was purified according to the following protocol that uses heat denaturation similarly to that described by El-Maghrabi et al. [El-Maghrabi, M. R. et al. “Isolation of a human liver fructose-1,6-bisphosphatase cDNA and expression of the protein in Escherichia coli.” J Biol Chem 268:9466-9472, 1993.]. Briefly, E. coli cells, transiently expressing very high levels of soluble and active human liver FBPase, were suspended in 20 mM Tris-HCl pH 7.5, 1 mM EDTA, 1 mM DTT and were lysed by French press. The soluble extract was heat denatured at 65° C. for 5 min, and insoluble, denatured proteins were removed by centrifugation. The extract was then applied to a BioRad Macro-Prep High Q column equilibrated with 20 mM Tris-HCl pH 7.5, 1 mM EDTA, 1 mM DTT and the flow-through (containing FBPase activity) was collected and applied to a BioRad Macro-Prep HS column equilibrated with 20 mM HEPES pH 7.2, 1 mM DTT. A gradient of increasing NaCl concentration was then applied to the HS column and fractions were collected. Fractions containing active FBPase were pooled and further purified by size exclusion chromatography on a Sephacryl S200 column equilibrated in 20 mM Tris-HCl pH 7.5, 150 mM NaCl, 1 mM EDTA, 1 mM DTT. Purity of the enzyme preparation was >90% as assessed by Mass spectrometry.
Recombinant human liver FBPase (hlFBPase) activity was assayed through measuring the inorganic phosphate release that results from the hydrolysis of Fructose-1,6-bisphosphate by the enzyme. As described by Baykov A. A. et al. in [Baykov A. A et al., “Malachite Green procedure for orthophosphate determination and its use in alkaline phosphatase-based enzyme immunoassays”. Anal. Biochem., 171:266-270, 1988], inorganic phosphate can be readily quantified by spectrophotometry at 620 nm after complexation with ammonium molybdate/malachite green reagent. Enzymatic reaction was carried out with modifications of the procedure described by Wright S. W. et al. [Wright S. W. et al., “Anilinoquinazoline inhibitors of Fructose-1,6-bisphosphatase bind to a novel allosteric site: synthesis, in vitro characterization, and X-ray crystallography”. J. Med. Chem. 45:3865-3877, 2002]. Specifically, the reaction was carried out in 96 well plates in a final volume of 100 μl in the presence or in the absence of allosteric inhibitors. Reaction was started adding 25 ng of hlFBPase to the reaction mixture containing 50 mM HEPES-KOH buffer pH 7.2, 2 mM MgCl2, 2 mM EDTA, 1 mM DTT, 50 μM fructose-1,6-bisphosphate and 1% DMSO. After 50 minutes incubation at room temperature, the phosphate released was allowed to form a colored complex for 10 min by adding 150 μl of ammonium molybdate/malachite green reagent containing 0.03% malachite green, 0.2% ammonium molybdate, 0.05% Triton X-100 and 0.7 M H2SO4 in water that was stirred for 30 min at room temperature and filtered through 0.2 μm filter. Under these conditions, the assay was linear with time and able to detect FBPase inhibition after spectrophotometric read-out at 620 nm.
In the case of `CNC(=O)Nc1cc(OC)cc(NC(=O)NS(=O)(=O)c2cccc(C)c2)n1` [Compound 27, N-({4-Methoxy-6-[(methylcarbamoyl)amino]pyridin-2-yl}carbamoyl)-3-methylbenzenesulfonamide], the IC50 is 351 nM.

Turning to `Nc1cc(Br)cc(NC(=O)NS(=O)(=O)c2cccc(Cl)c2)n1` [Compound 28, N-[(6-Amino-4-bromopyridin-2-yl)carbamoyl]-3-chlorobenzenesulfonamide], the IC50 is 396 nM.

On to `CNC(=O)Nc1cc(OC)cc(NC(=O)NS(=O)(=O)c2csc(COC)c2)n1` [Compound 29, 5-(Methoxymethyl)-N-({4-methoxy-6-[(methylcarbamoyl)amino]pyridin-2-yl}carbamoyl)thiophene-3-sulfonamide], for which the IC50 came to 420 nM.

For the compound `COCCc1sc(S(=O)(=O)NC(=O)Nc2cc(OC)cc(N)n2)cc1C` [Compound 30, N-[(6-Amino-4-methoxypyridin-2-yl)carbamoyl]-5-(2-methoxyethyl)-4-methylthiophene-2-sulfonamide], the IC50 came out at 428 nM.

For `COCCc1sc(S(=O)(=O)NC(=O)Nc2cc(Br)cc(N3CCOCC3)n2)cc1C` [Compound 31, N-[(4-Bromo-6-morpholin-4-ylpyridin-2-yl)carbamoyl]-5-(2-methoxyethyl)-4-methylthiophene-2-sulfonamide], the IC50 was determined as 429 nM.

As for `COCCc1sc(S(=O)(=O)NC(=O)Nc2cc(SC)cc(N)n2)cc1C` [Compound 32, N-{[6-Amino-4-(methylthio)pyridin-2-yl]carbamoyl}-5-(2-methoxyethyl)-4-methylthiophene-2-sulfonamide], the IC50 came to 433 nM.

In the case of `COCCc1sc(S(=O)(=O)NC(=O)Nc2cc(C(F)(F)F)ccn2)cc1C` [Compound 33, 5-(2-Methoxyethyl)-4-methyl-N-{[4-(trifluoromethyl)pyridin-2-yl]carbamoyl}thiophene-2-sulfonamide], the IC50 was found to be 1660 nM.

For `Nc1cc(Br)cc(NC(=O)NS(=O)(=O)c2ccc3c(c2)CCO3)n1` [Compound 34, N-[(6-Amino-4-bromopyridin-2-yl)carbamoyl]-2,3-dihydro-1-benzofuran-5-sulfonamide], the IC50 was determined as 481 nM.

With `CCOc1cc(NC(=O)NC)nc(NC(=O)NS(=O)(=O)c2cc(C)c(CCOC)s2)c1` [Compound 35, N-({4-Ethoxy-6-[(methylcarbamoyl)amino]pyridin-2-yl}carbamoyl)-5-(2-methoxyethyl)-4-methylthiophene-2-sulfonamide], the IC50 was 494 nM.

As for `Cc1cccc(S(=O)(=O)NC(=O)Nc2cc(Br)cc(N)n2)c1` [Compound 36, N-[(6-Amino-4-bromopyridin-2-yl)carbamoyl]-3-methylbenzenesulfonamide], the IC50 was found to be 566 nM.

On to `Nc1cc(Br)cc(NC(=O)NS(=O)(=O)c2ccc3c(c2)OCCO3)n1` [Compound 37, N-[(6-Amino-4-bromopyridin-2-yl)carbamoyl]-2,3-dihydro-1,4-benzodioxine-6-sulfonamide], for which the IC50 was determined as 574 nM.

`CNC(=O)Nc1cc(OC)cc(NC(=O)NS(=O)(=O)c2cc(C)c(OCCOC)s2)n1` [Compound 38, 5-(2-Methoxyethoxy)-N-({4-methoxy-6-[(methylcarbamoyl)amino]pyridin-2-yl}carbamoyl)-4-methylthiophene-2-sulfonamide]: the IC50 came out at 582 nM.

On to `Cc1cccc(S(=O)(=O)NC(=O)Nc2cc(Br)cc(NCC(F)F)n2)c1` [Compound 39, N-({4-Bromo-6-[(2,2-difluoroethyl)amino]pyridin-2-yl}carbamoyl)-3-methylbenzenesulfonamide], for which the IC50 came out at 610 nM.

Take `CCOc1cc(NC(N)=O)nc(NC(=O)NS(=O)(=O)c2cc(C)c(CCOC)s2)c1` [Compound 40, N-{[6-(Carbamoylamino)-4-ethoxypyridin-2-yl]carbamoyl}-5-(2-methoxyethyl)-4-methylthiophene-2-sulfonamide]: the IC50 came out at 631 nM.
